Measurements reported in patent US20060148858A1, “1, 2-Azole derivatives with hypoglycemic and hypolipidemic activity” (priority 2002, published 2006).

SMILES | melting point
Cc1nn(-c2ccc(C(F)(F)F)cn2)cc1COc1ccc(OCC(=O)O)cc1 [Example 10, (4-{3-methyl-1-[5-(trifluoromethyl)-2-pyridyl]-1H-pyrazol-4-ylmethoxy}phenoxy)acetic acid] | 138 to 139 °C
O=C(O)CCc1cc(OCCCCc2cc(-c3ccc(C(F)(F)F)cc3)no2)nn1-c1ccccc1 [Example 11, 3-[1-phenyl-3-(4-{3-[4-(trifluoromethyl)phenyl]-5-isoxazolyl}butoxy)-1H-pyrazol-5-yl]propionic acid] | 139 to 140 °C
O=C(O)c1ccc(OCCCCc2cc(-c3ccc(C(F)(F)F)cc3)no2)cc1 [Example 12, 4-(4-{3-[4-(trifluoromethyl)phenyl]-5-isoxazolyl}butoxy)benzoic acid] | 170 to 171 °C
O=C(O)Cc1ccc(OCCCCc2cc(-c3ccc(C(F)(F)F)cc3)no2)cc1 [Example 13, [4-(4-{3-[4-(trifluoromethyl)phenyl]-5-isoxazolyl}butoxy)phenyl]acetic acid] | 125 to 126 °C
O=C(O)CCc1ccc(OCCCCc2cc(-c3ccc(C(F)(F)F)cc3)no2)cc1 [Example 14, 3-[4-(4-{3-[4-(trifluoromethyl)phenyl]-5-isoxazolyl}butoxy)phenyl]propionic acid] | 130 to 131 °C
CC(C)(Oc1ccc(OCCCCc2cc(-c3ccc(C(F)(F)F)cc3)no2)cc1)C(=O)O [Example 15, 2-methyl-2-[4-(4-{3-[4-(trifluoromethyl)phenyl]-5-isoxazolyl}butoxy)phenoxy]propionic acid] | 103 to 104 °C
O=C(O)Cc1cccc(OCCCCc2cc(-c3ccc(C(F)(F)F)cc3)no2)c1 [Example 16, [3-(4-{3-[4-(trifluoromethyl)phenyl]-5-isoxazolyl}butoxy)phenyl]acetic acid] | 134 to 135 °C
O=C(O)Cc1ccccc1OCCCCc1cc(-c2ccc(C(F)(F)F)cc2)no1 [Example 17, [2-(4-{3-[4-(trifluoromethyl)phenyl]-5-isoxazolyl}butoxy)phenyl]acetic acid] | 122 to 123 °C
CCOc1cc(OCc2cn(-c3ccc(C(F)(F)F)cn3)nc2C)ccc1CCC(=O)O [Example 19, 3-(2-ethoxy-4-{3-methyl-1-[5-(trifluoromethyl)-2-pyridyl]-1H-pyrazol-4-ylmethoxy}phenyl)propionic acid] | 151 to 152 °C
CCOc1cc(OCCCCc2cc(-c3ccc(C(F)(F)F)cc3)no2)ccc1CCC(=O)O [Example 21, 3-[2-ethoxy-4-(4-{3-[4-(trifluoromethyl)phenyl]-5-isoxazolyl}butoxy)phenyl]propionic acid] | 105 to 106 °C
CC(C)c1nn(-c2ccc(C(F)(F)F)cn2)cc1CCCOc1cc(CCC(=O)O)n(C)n1 [Example 25, 3-[3-(3-{3-isopropyl-1-[5-(trifluoromethyl)-2-pyridyl]-1H-pyrazol-4-yl}propoxy)-1-methyl-1H-pyrazol-5-yl]propionic acid] | 131 to 132 °C
CC(C)c1nn(-c2ccc(C(F)(F)F)cn2)cc1COc1cc(CCC(=O)O)n(C)n1 [Example 27, 3-(3-{3-isopropyl-1-[5-(trifluoromethyl)-2-pyridyl]-1H-pyrazol-4-ylmethoxy}-1-methyl-1H-pyrazol-5-yl)propionic acid] | 141 to 142 °C
Cc1nn(-c2ccc(C(F)(F)F)cn2)cc1COc1cccc(OC(C)(C)C(=O)O)c1 [Example 32, 2-methyl-2-(3-{3-methyl-1-[5-(trifluoromethyl)-2-pyridyl]-1H-pyrazol-4-ylmethoxy}phenoxy)propionic acid] | 152 to 153 °C
Cc1nn(-c2ccc(C(F)(F)F)cn2)cc1COc1cc(/C=C/C(=O)O)n(C)n1 [Example 37, (E)-3-(1-methyl-3-{3-methyl-1-[5-(trifluoromethyl)-2-pyridyl]-1H-pyrazol-4-ylmethoxy}-1H-pyrazol-5-yl)propenoic acid] | 208 to 209 °C
Cc1nn(-c2ccc(C(F)(F)F)cn2)cc1COc1cc(CCC(=O)O)n(C)n1 [Example 38, 3-(1-methyl-3-{3-methyl-1-[5-(trifluoromethyl)-2-pyridyl]-1H-pyrazol-4-ylmethoxy}-1H-pyrazol-5-yl)propionic acid] | 154 to 155 °C

Now from value to molecule:

melting point | SMILES
127 to 128 °C | O=C(O)Cc1ccc(OCCCc2cc(-c3ccc(C(F)(F)F)cc3)no2)cc1 [Example 1, [4-(3-{3-[4-(trifluoromethyl)phenyl]-5-isoxazolyl}propoxy)phenyl]acetic acid]
221 to 222 °C | O=C(O)c1ccc(OCCCc2cc(-c3ccc(C(F)(F)F)cc3)no2)cc1 [Example 2, 4-(3-{3-[4-(trifluoromethyl)phenyl]-5-isoxazolyl}propoxy)benzoic acid]
126 to 127 °C | O=C(O)Cc1cccc(OCCCc2cc(-c3ccc(C(F)(F)F)cc3)no2)c1 [Example 3, [3-(3-{3-[4-(trifluoromethyl)phenyl]-5-isoxazolyl}propoxy)phenyl]acetic acid]
133 to 134 °C | O=C(O)c1cccc(OCCCc2cc(-c3ccc(C(F)(F)F)cc3)no2)c1 [Example 4, 3-(3-{3-[4-(trifluoromethyl)phenyl]-5-isoxazolyl}propoxy)benzoic acid]
174 to 175 °C | O=C(O)CCc1ccc(OCCCc2cc(-c3ccc(C(F)(F)F)cc3)no2)cc1 [Example 5, 3-[4-(3-{3-[4-(trifluoromethyl)phenyl]-5-isoxazolyl}propoxy)phenyl]propionic acid]
132 to 133 °C | O=C(O)c1ccccc1OCCCc1cc(-c2ccc(C(F)(F)F)cc2)no1 [Example 6, 2-(3-{3-[4-(trifluoromethyl)phenyl]-5-isoxazolyl}propoxy)benzoic acid]
162 to 163 °C | Cn1nc(OCCCc2cc(-c3ccc(C(F)(F)F)cc3)no2)cc1C(=O)O [Example 7, 1-methyl-3-(3-{3-[4-(trifluoromethyl)phenyl]-5-isoxazolyl}propoxy)-1H-pyrazole-5-carboxylic acid]
145 to 146 °C | O=C(O)c1cc(OCCCc2cc(-c3ccc(C(F)(F)F)cc3)no2)nn1-c1ccccc1 [Example 8, 1-phenyl-3-(3-{3-[4-(trifluoromethyl)phenyl]-5-isoxazolyl}propoxy)-1H-pyrazole-5-carboxylic acid]
195 to 196 °C | Cc1nn(-c2ccc(C(F)(F)F)cn2)cc1COc1ccc(CCC(=O)O)cc1 [Example 9, 3-(4-{3-methyl-1-[5-(trifluoromethyl)-2-pyridyl]-1H-pyrazol-4-ylmethoxy}phenyl)propionic acid]
91 to 92 °C | CCOc1nn(-c2ccc(C(F)(F)F)cn2)cc1CCCOc1ccc(OC(C)(C)C(=O)O)cc1 [Example 18, 2-[4-(3-{3-ethoxy-1-[5-(trifluoromethyl)-2-pyridyl]-1H-pyrazol-4-yl}propoxy)phenoxy]-2-methylpropionic acid]
102 to 103 °C | CC(C)c1nn(-c2ccc(C(F)(F)F)cn2)cc1CCCOc1cccc(CCC(=O)O)c1 [Example 23, 3-[3-(3-{3-isopropyl-1-[5-(trifluoromethyl)-2-pyridyl]-1H-pyrazol-4-yl}propoxy)phenyl]propionic acid]
88 to 89 °C | CCOc1nn(-c2ccc(C(F)(F)F)cn2)cc1CCCOc1cccc(CCC(=O)O)c1 [Example 33, 3-[3-(3-{3-ethoxy-1-[5-(trifluoromethyl)-2-pyridyl]-1H-pyrazol-4-yl}propoxy)phenyl]propionic acid]
